Experimental data as given in patent US20260306460A1, “COMPOSITION FOR REMOVING AND INHIBITING SENESCENT CELLS, AND USES THEREOF” (LIFECEUTIX CO., LTD., priority 2023, published 2026).
Values joined by “and” are separate entries in the source; they are usually repeats but may differ in a detail not shown here. Identical values can stand only once. Like-named read-outs stand apart in the source and are kept apart here.

Key:
[1] = tested on: HMGN1 secreted from senescent A549 cells; assay: HMGN1 secretion (ELISA) from senescent A549 cancer cells, Example 12; format: cell-based, human; settings: senescent untreated = 100%; 30 μM; 90 μM for LX-305, 905, 1302, 1601, 1603, 2003, 2702, 2901, 3106; 270 μM for LX-1103, 2005, 2007;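 note: A549 cells made senescent by doxorubicin exposure, with DMSO-treated cells serving as the non-senescent control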
Experimental: Cells were treated with doxorubicin or control (DMSO) and cultured.

[2] = tested on: naturally aged C57BL6J mice; assay: Skin aging (dermal thickness, COL1A1 and SDF1 mRNA, hair loss) in naturally aged mice, Example 21-10, Table 25; format: in vivo, mouse; settings: for Dermal Thickness (μm): mouse, in vivo
Experimental: 22-month-old female C57BL6J mice (KRIBB Laboratory Animal Resource Center) were acclimated to the experimental environment for one week, after which the aged mice were randomly assigned to experimental and control groups. Eight-week-old, non-aged mice served as controls. LX-403 was mixed in a 10% ethanol solution of PEG400 and administered orally at a concentration of 25 mg/kg daily for 21 days, or administered to the skin, joints, or eyes at a concentration of 1 μM. LX-1801 was mixed in distilled water with 4% DMSO, 30% PEG300, and 5% Tween80 and administered to the skin, joints, or eyes at a concentration of 0.4 μM daily for 21 days. LX-2001 was mixed in PBS and administered to the skin, joints, or eyes at a concentration of […] daily for 21 days. LX-2002 was mixed in distilled water with 4% DMSO, 30% PEG300, and 5% Tween80 and administered to the skin, joints, or eyes at a concentration of 2 μM daily for 21 days. […] LX-2005 was mixed in distilled water with 4% DMSO, 30% PEG300, and 5% Tween80 and administered to the skin, joints, or eyes at a concentration of 90 μM daily for 21 days. LX-2007 was mixed in distilled water with 4% DMSO, 30% PEG300, and 5% Tween80 and administered to the skin, joints, or eyes at a concentration of 90 μM daily for 21 days. […] LX-3002 was mixed in distilled water with 4% DMSO, 30% PEG300, and 5% Tween80 and administered orally at a concentration of 10 mg/kg daily for 21 days. […] LX-5411 was mixed in 5% PBS and administered orally at a concentration of 10 mg/kg daily for 21 days or administered to the skin, joints, or eyes at a concentration of 3 μM. LX-5701 was mixed in PBS and administered orally at a concentration of 360 mg/kg daily for 21 days. LX-6807 was mixed in saline and administered intraperitoneally at a concentration of 1 mg/kg daily for 21 days. LX-2101 or LX-2102 was mixed in PBS solution with 5% DMSO and administered intraperitoneally at a concentration of 20 mg/kg or 10 mg/kg, respectively, daily for 21 days. The control group received only the solution in the same volume. After the end of drug administration, the methods described in each example below were performed.
Frozen sections of skin tissue were stained with Hematoxylin/Eosin (H/E), and the dermal thickness was observed under an optical microscope. Furthermore, the mRNA levels of collagen (COL1A1), a skin component, and SDF1, which suppresses age-related pigmentation, were measured using qRT-PCR as described in Example 7-2 of WO2023-085787 A1. […] Furthermore, biweekly examinations were performed to assess the onset of hair loss due to aging.

[3] = tested on: naturally aged C57BL6J mice; format: in vivo, mouse
[4] = tested on: doxorubicin-induced aged C57BL6J mice; assay: Hair loss area in doxorubicin-aged mice, Example 22-11, Table 40; format: in vivo, mouse
Experimental: Eight-week-old male C57BL6J mice (KRIBB Laboratory Animal Resource Center) were acclimated to the experimental environment for one week. Afterwards, the anticancer agent doxorubicin was administered intraperitoneally at a concentration of 10 mg/kg, inducing aging for more than 10 days. The aging-induced mice were randomly assigned to experimental and control groups. LX-403 was mixed with a 10% ethanol solution of PEG400 and administered orally at a concentration of 25 mg/kg or intradermally at a concentration of 1 μM for 21 days. LX-1801 was mixed in distilled water with 4% DMSO, 30% PEG300, and 5% Tween80 and administered intradermally at a concentration of 0.4 μM daily for 21 days. LX-2001 was mixed in PBS and administered intradermally at a concentration of 2 μM daily for 21 days. LX-2002 was mixed in distilled water with 4% DMSO, 30% PEG300, and 5% Tween80 and administered intradermally at a concentration of 2 μM daily for 21 days. […] LX-2005 was mixed in distilled water with 4% DMSO, 30% PEG300, and 5% Tween80 and administered intradermally at a concentration of 90 μM daily for 21 days. LX-2007 was mixed in distilled water with 4% DMSO, 30% PEG300, and 5% Tween80 and administered intradermally at a concentration of 90 μM daily for 21 days. […] LX-3002 was mixed in distilled water with 4% DMSO, 30% PEG300, and 5% Tween80 and administered orally at a concentration of 10 mg/kg daily for 21 days. […] LX-5411 was mixed in 5% phosphate-buffered saline (PBS) and administered orally at a concentration of 10 mg/kg daily for 21 days or intradermally at a concentration of 3 μM. LX-5701 was mixed in PBS and administered orally at a concentration of 360 mg/kg daily for 21 days. LX-6807 was mixed in saline and administered intraperitoneally at a concentration of 1 mg/kg daily for 21 days. The control group received only the solution in the same volume. After the end of drug administration, the methods described in each example below were performed.
Alopecia is one of the most troubling side effects of chemotherapy, for which there is currently no treatment. Hair loss in mice induced to age by the anticancer drug was quantified using imaging software such as ImageJ (NIH) from digital photographs taken using a fixed camera position and magnification.

[5] = tested on: naturally aged C57BL6J mice; assay: Geriatric depression and anxiety in aged mice, Example 21-8; format: in vivo, mouse; settings: for amount of SASP, p16, SA-β-gal, lipofuscin / symptoms of geriatric depression and anxiety: aged mice; for amount of SASP in serum and tissues: mice of Examples 21-5 and 21-6
Source text: The amount of senescent-associated secretory factor (SASP) in serum and tissues collected from mice of Examples 21-5 and 21-6 was reduced by treatment with LX-5701, LX-2101, or LX-2102. It was confirmed that removing senescent cells, which increase with aging in mice, and effectively reducing the amount of senescent-associated secretory factor (SASP) can improve symptoms of geriatric depression and anxiety.

[6] = naturally aged mice, untreated aged = 100
[7] = skin, naturally aged mice, untreated aged = 1
[8] = after 7 days, 6 mm punch dorsal skin wounds, naturally aged mice, untreated aged 3.2 (±0.4)
[9] = doxorubicin-induced aged mice, untreated 100 (±15.4)

SMILES	HMGN1 [1]	Dermal Thickness (μm) [2]	Relative area of hair loss (%) [2, 6]	Col1a1 mRNA (Fold) [2, 7]	SDF1 mRNA (fold) [2, 7]	Wound size (mm) [3, 8]	Relative area of hair loss [4, 9]	amount of SASP, p16, SA-β-gal, lipofuscin [5]	symptoms of geriatric depression and anxiety [5]	amount of SASP in serum and tissues [5]	Col1a1 mRNA (Fold) ([2]; topical)	Relative area of hair loss (%) ([2]; topical)	SDF1 mRNA (fold) ([2]; topical)	Relative area of hair loss [4]	Wound size (mm) ([3]; mouse, in vivo)
CC1(C)CC[C@]2(C(=O)O)CC[C@]3(C)C(=CC[C@@H]4[C@@]5(C)CC[C@H](O)C(C)(C)[C@@H]5CC[C@]43C)[C@@H]2C1 [LX-2003, Oleanolic acid]	218%	235 (±56.3) μm	71 (±2.2) %	2.3 (±0.4) Fold	1.7 (±0.1) fold	2.6 (±0.6) mm	79 (±6.7) %								
C=C(C)[C@@H]1CC[C@]2(C(=O)O)CC[C@]3(C)[C@H](CC[C@@H]4[C@@]5(C)CC[C@H](O)C(C)(C)[C@@H]5CC[C@]43C)[C@@H]12 [LX-2005, Betulinic acid]	252%	227 (±28.4) μm	80 (±4.9) %	1.7 (±0.2) Fold	1.9 (±0.2) fold	2.9 (±0.3) mm	82 (±4.6) %								
CC1(C)C=C2[C@H]3CC[C@@H]4[C@@]5(C)CCC(=O)C(C)(C)[C@@H]5CC[C@@]4(C)[C@]3(C)CC[C@@]2(C(=O)O)CC1 [LX-2007, Moronic acid]	192%	219 (±31.1) μm	86 (±5.5) %	1.6 (±0.3) Fold	1.3 (±0.2) fold	3.0 (±0.2) mm	86 (±2.9) %								
CC1(C)CC[C@]2(NC(=O)C(C)(F)F)CC[C@]3(C)[C@H](C(=O)C=C4[C@@]5(C)C=C(C#N)C(=O)C(C)(C)[C@@H]5CC[C@]43C)[C@@H]2C1 [LX-2101, Omaveloxolone]	297%	224 (±11.1) μm and 251 (±15.1) μm	82 (±8.9) %	2.5 (±0.2) Fold	1.4 (±0.3) fold	1.9 (±0.3) mm		reduced	improved	reduced	2.2 (±0.2) Fold	79 (±4.1) %	1.9 (±0.3) fold	79 (±3.9) %	
C#CC(=O)N1[C@@H](CCCC)Cc2cc(OC)ccc2[C@@H]1c1ccc(NC23CC4CC(CC(C4)C2)C3)cc1 [LX-5411]		231 (±27.1) μm	64 (±4.8) %	2.7 (±0.1) Fold	2.3 (±0.2) fold	1.6 (±0.1) mm	77 (±4.1) %	reduced	improved						
O=C1C2CCN(CC2)C1CNC(=O)C(F)(F)F (centres unmarked) [LX-5701]		239 (±16.4) μm	71 (±8.4) %	1.9 (±0.1) Fold	1.7 (±0.3) fold		67 (±17.8) %	reduced	improved	reduced					1.9 (±0.2) mm
Cc1cccc([C@H](C)c2cnc[nH]2)c1C [LX-6807, Dexmedetomidine]		267 (±22.4) μm	72 (±3.8) %	3.2 (±0.2) Fold	2.1 (±0.2) fold	1.7 (±0.1) mm	59 (±3.2) %	reduced	improved						
